Experiment [1] relates to HEK293 FOP control reporter cell line. The experiment can be described thus: HEK293 FOP control reporter assay. The format is cell-based, human. The following applies: read-out: HEK FOP IC50. On the procedure: (§1) Measurement of luciferase expression was done as described for the constitutive active Wnt assay.
In a parallel approach, HEK293 cells were cotransfected with the FOP control vector and pcDNA3. The FOP vector is identical to the TOP construct, but it contains instead of functional TCF elements a randomized, non-functional sequence. For this transfection a stable transfected cell line was generated as well, based on selection with Geneticin (1 mg/ml).
In general terms: A reporter such as luciferase makes a cellular process visible.

For experiment [2], the system named is HCT116 FOP control reporter cell line. The experiment can be described thus: HCT116 FOPFlash control reporter assay (FOP control vector, non-functional TCF elements). The class given is cell-based. The settings on record: HCT116 FOP control reporter cells, 36 hours incubation, luciferase expression. From the text: In a parallel approach, HCT116 cells were cotransfected with the FOP control vector and pcDNA3. The FOP vector is identical to the TOP construct, but it contains instead of functional TCF elements a randomized, non-functional sequence. For this transfection a stable transfected cell line was generated as well.

For a further experiment, the system named is wildtype Wnt pathway. Description: HEK293 TOP reporter assay, wildtype Wnt pathway stimulated with Wnt-3a. The format is cell-based, human. The protocol:
as §1
In order to discover and characterize small molecules which inhibit the wildtype Wnt pathway, a cellular reporter assay was employed. […] Stable transfectants were generated by selection with 300 μg/ml Hygromycin.

For experiment [3], the system named is constitutive active colorectal cancer cell (CRC) Wnt pathway. The experiment can be described thus: HCT116 TOPFlash cellular reporter assay (Super TopFlash luciferase), constitutive active Wnt pathway. The settings on record: HCT116 TOP reporter cells, 36 hours incubation, luciferase expression. The format is cell-based. The protocol: In order to discover and characterize small molecules which inhibit the constitutive active colorectal cancer cell (CRC) Wnt pathway, a cellular reporter assay was employed. […] Stable transfectants were generated by cotransfection with pcDNA3 and selection of stable transfected cells with 1 mg/ml G418.

Setting [4] is: HEK293 FOP control cells, EC50 concentration of recombinant Wnt-3a, 16 hours.
The mark [5] stands for this setting: Homo sapiens, HEK293, 16 h; read-out: HEK TOP OncoFlash IC50.
The mark [6] stands for this setting: Homo sapiens, HEK293, 16 h, read-out: HEK TOP OncoFlash IC50.

Counter-ions that a name gives are not always drawn. Like-named read-outs stand apart in the source and are kept apart here.

With `C[C@@H](C(=O)Nc1cc(C(=O)Nc2ccc(-c3ccccc3F)nc2)ccc1OC(F)(F)F)N1CCN(C)CC1` (single isomer, unassigned) [Example 65, N-[6-(2-fluorophenyl)pyridin-3-yl]-3-{[(2S)-2-(4-methylpiperazin-1-yl)propanoyl]amino}-4-(trifluoromethoxy)benzamide or N-[6-(2-fluorophenyl)pyridin-3-yl]-3-{[(2R)-2-(4-methylpiperazin-1-yl)propanoyl]amino}-4-(trifluoromethoxy)benzamide], the IC50 in experiment [1] (setting [4]) and in experiment [2] was at least 50000 nM in each case.
For the compound `C[C@H](C(=O)Nc1cc(C(=O)Nc2ccc(-c3ccc(N(C)C)cc3)nc2)ccc1OC(F)(F)F)N1CCOCC1` (single isomer, unassigned) [Example 115, N-{6-[4-(dimethylamino)phenyl]pyridin-3-yl}-3-{[(2S)-2-(morpholin-4-yl)propanoyl]amino}-4-(trifluoromethoxy)benzamide or N-{6-[4-(dimethylamino)phenyl]pyridin-3-yl}-3-{[(2R)-2-(morpholin-4-yl)propanoyl]amino}-4-(trifluoromethoxy)benzamide], the IC50 in experiment [1] (setting [4]) is 4700 nM; in the experiment on wildtype Wnt pathway (HEK293 TOP cells, EC50 concentration of recombinant Wnt-3a, 16 hours; read-out: HEK TOP OncoFlash IC50), 52 nM; in experiment [3], 8.8 nM; in experiment [2], 2200 nM.
Regarding `COc1ccc(C(=O)Nc2ccc(-c3ccccc3F)nc2)cc1NC(=O)CN1CCOCC1` [Example 1, N-[6-(2-fluorophenyl)pyridin-3-yl]-4-methoxy-3-[(morpholin-4-ylacetyl)amino]benzamide], the half-inhibitory concentration (IC50) was at least 50000 nM in experiment [1] (Homo sapiens, HEK293, 16 h); 3300 nM with wildtype Wnt pathway (setting [5]); 1140 nM in experiment [3] (Homo sapiens, HCT-116, 36 h); at least 50000 nM in experiment [2] (Homo sapiens, HCT-116, 36 h).
On to `O=C(CN1CCOCC1)Nc1cc(C(=O)Nc2ccc(-c3ccccc3)nc2)ccc1OC(F)(F)F` [Example 15, 3-[(morpholin-4-ylacetyl)amino]-N-(6-phenylpyridin-3-yl)-4-(trifluoromethoxy)benzamide], for which the IC50 was at least 50000 nM in experiment [1] (Homo sapiens, HEK293, 16 h); 48 nM in the experiment with wildtype Wnt pathway (setting [5]); 137 nM in experiment [3] (Homo sapiens, HCT-116, 36 h); at least 50000 nM in experiment [2] (Homo sapiens, HCT-116, 36 h).
With `O=C(CN1CCOCC1)Nc1cc(NC(=O)c2ncc(-c3ccccc3)s2)ccc1OC(F)(F)F` [Example 16, N-{3-[(morpholin-4-ylacetyl)amino]-4-(trifluoromethoxy)phenyl}-5-phenyl-1,3-thiazole-2-carboxamide], the IC50 was at least 50000 nM in experiment [1] (Homo sapiens, HEK293, 16 h); 92 nM in the experiment with wildtype Wnt pathway (setting [5]); 17.8 nM in experiment [3] (Homo sapiens, HCT-116, 36 h); at least 50000 nM in experiment [2] (Homo sapiens, HCT-116, 36 h).
As to `O=C(CN1CCOCC1)Nc1cc(NC(=O)c2ccc(-c3ccccc3)s2)ccc1OC(F)(F)F` [Example 17, N-{3-[(morpholin-4-ylacetyl)amino]-4-(trifluoromethoxy)phenyl}-5-phenylthiophene-2-carboxamide], the half-inhibitory concentration (IC50) was at least 50000 nM in experiment [1] (Homo sapiens, HEK293, 16 h); 33 nM in the experiment with wildtype Wnt pathway (setting [5]); 43 nM in experiment [3] (Homo sapiens, HCT-116, 36 h); at least 50000 nM in experiment [2] (Homo sapiens, HCT-116, 36 h).
In the case of `CC(C)(C)c1ccc(NC(=O)c2ccc(-c3ccccc3)s2)cc1NC(=O)CN1CCOCC1` [Example 19, N-{4-tert-butyl-3-[(morpholin-4-ylacetyl)amino]phenyl}-5-phenylthiophene-2-carboxamide], the IC50 is at least 50000 nM in experiment [1] (Homo sapiens, HEK293, 16 h); 990 nM with wildtype Wnt pathway (setting [5]); 26.2 nM in experiment [3] (Homo sapiens, HCT-116, 36 h); 11000 nM in experiment [2] (Homo sapiens, HCT-116, 36 h).
On the same counts, the results for `COc1ccc(NC(=O)c2ccc(-c3ccccc3)s2)cc1NC(=O)CN1CCOCC1` [Example 25, N-{4-methoxy-3-[(morpholin-4-ylacetyl)amino]phenyl}-5-phenylthiophene-2-carboxamide] are 10000 nM, 90 nM, 326 nM and at least 50000 nM.
The matching figures for `O=C(CN1CCOCC1)Nc1cc(NC(=O)c2ccc(-c3ccccc3F)nc2)ccc1OC(F)(F)F` [Example 30, 6-(2-fluorophenyl)-N-{3-[(morpholin-4-ylacetyl)amino]-4-(trifluoromethoxy)phenyl}nicotinamide]: at least 50000 nM, 1400 nM, 90.1 nM and at least 50000 nM.
In the case of `O=C(CN1CCOCC1)Nc1cc(NC(=O)c2ccc(-c3ccccc3)nc2)ccc1OC(F)(F)F` [Example 33, N-{3-[(morpholin-4-ylacetyl)amino]-4-(trifluoromethoxy)phenyl}-6-phenylnicotinamide], the IC50 in experiment [1] (Homo sapiens, HEK293, 16 h) is 7400 nM; with wildtype Wnt pathway (setting [5]) it was 370 nM; in experiment [3] (Homo sapiens, HCT-116, 36 h), 111 nM; in experiment [2] (Homo sapiens, HCT-116, 36 h) it was at least 50000 nM.
The matching figures for `CN1CCN(CC(=O)Nc2cc(C(=O)Nc3nnc(-c4ccccc4)s3)ccc2OC(F)F)CC1` [Example 40, 4-(difluoromethoxy)-3-{[(4-methylpiperazin-1-yl)acetyl]amino}-N-(5-phenyl-1,3,4-thiadiazol-2-yl)benzamide]: at least 50000 nM, 530 nM, 52.4 nM and at least 50000 nM.
For `CC(C(=O)Nc1cc(C(=O)Nc2nnc(-c3ccccc3)s2)ccc1OC(F)F)N1CCN(C)CC1` (centres unmarked) [Example 42, 4-(difluoromethoxy)-3-{[2-(4-methylpiperazin-1-yl)propanoyl]amino}-N-(5-phenyl-1,3,4-thiadiazol-2-yl)benzamide trifluoroacetate (1:1)], the IC50 is at least 50000 nM in experiment [1] (Homo sapiens, HEK293, 16 h); 106 nM with wildtype Wnt pathway (setting [6]); 242 nM in experiment [3] (Homo sapiens, HCT-116, 36 h); at least 50000 nM in experiment [2] (Homo sapiens, HCT-116, 36 h).
With `COCc1ccc(C(=O)Nc2nnc(-c3ccccc3)s2)cc1NC(=O)C1(N2CCOCC2)CC1` [Example 43, 4-(methoxymethyl)-3-({[1-(morpholin-4-yl)cyclopropyl]carbonyl}amino)-N-(5-phenyl-1,3,4-thiadiazol-2-yl)benzamide], the 50% inhibitory concentration (IC50) in experiment [1] (Homo sapiens, HEK293, 16 h) is at least 50000 nM; in the experiment with wildtype Wnt pathway (setting [5]) it was 110 nM; in experiment [3] (Homo sapiens, HCT-116, 36 h), 49.1 nM; in experiment [2] (Homo sapiens, HCT-116, 36 h), at least 50000 nM.
As for `COCc1ccc(C(=O)Nc2nnc(-c3ccccc3)s2)cc1NC(=O)C1(N2CCN(C)CC2)CC1` [Example 45, 4-(methoxymethyl)-3-({[1-(4-methylpiperazin-1-yl)cyclopropyl]carbonyl}amino)-N-(5-phenyl-1,3,4-thiadiazol-2-yl)benzamide hydrochloride (1:1)], the IC50 was at least 50000 nM in experiment [1] (Homo sapiens, HEK293, 16 h); 190 nM in the experiment on wildtype Wnt pathway (setting [6]); 198 nM in experiment [3] (Homo sapiens, HCT-116, 36 h); 26500 nM in experiment [2] (Homo sapiens, HCT-116, 36 h).
For the compound `CC(C(=O)Nc1cc(C(=O)Nc2nnc(-c3ccccc3)s2)ccc1OC(F)(F)F)N1CCOCC1` (centres unmarked) [Example 57, 3-{[2-(morpholin-4-yl)propanoyl]amino}-N-(5-phenyl-1,3,4-thiadiazol-2-yl)-4-(trifluoromethoxy)benzamide], the half-inhibitory concentration (IC50) in experiment [1] (Homo sapiens, HEK293, 16 h) was at least 50000 nM; in experiment [2] it was at least 50000 nM.
As to “N-[6-(2-fluorophenyl)pyridin-3-yl]-3-{[(2S)-2-(4-methylpiperazin-1-yl)propanoyl]amino}-4-(trifluoromethoxy)benzamide or N-[6-(2-fluorophenyl)pyridin-3-yl]-3-{[(2R)-2-(4-methylpiperazin-1-yl)propanoyl]amino}-4-(trifluoromethoxy)benzamide [Example 66]”, the half-inhibitory concentration (IC50) is at least 50000 nM in experiment [1] (setting [4]), 11 nM in experiment [3] and at least 50000 nM in experiment [2].

Usually IC50 stands for the concentration needed to halve the response being measured.

(Values after US10130633B2, “Compounds” (BAYER PHARMA AKTIENGESELLSCHAFT, priority 2013, dated 2018).)
